Experimental data taken from patent US20120121540A1 (priority 2007, published 2012).

Assay: HCV replicon assay (luciferase reporter, ET cell line)
Assay type: cell-based
Settings: Hepatitis C virus, HCV replicon luciferase activity in ET cells
Procedure, shortened: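 ET cells carry a stable luciferase-ubiquitin-neo/NS3-5B subgenomic HCV replicon with adaptive mutations. Compounds (0.1 nM to […], 0.5% DMSO) were added 24 h after plating, and luciferase was read 48-72 h later. EC50 came from 10-point 2-fold dilutions fitted to a Hill equation; TC50 was measured in parallel by WST-1.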

O=C(NCc1cccs1)c1nc2c(C(F)(F)F)cc(-c3cnoc3)cn2c1Cl [Compound 288, 3-Chloro-6-isoxazol-4-yl-8-trifluoromethyl-imidazo[1,2-a]pyridine-2-carboxylic Acid(thiophen-2-ylmethyl)-amide]
inhibition at 10 µM: 85%

Cc1nc(C)c(-c2cc(C(F)(F)F)c3nc(C(=O)NCc4cccs4)c(Cl)n3c2)s1 [Compound 289, 3-Chloro-6-(2,4-dimethyl-thiazol-5-yl)-8-trifluoromethyl-imidazo[1,2-a]pyridine-2-carboxylic Acid (thiophen-2-ylmethyl)-amide]
inhibition at 10 µM: 30.3%

O=C(NCc1cccs1)c1nc2c(C(F)(F)F)cc(-c3cn[nH]c3)cn2c1Cl [Compound 290, 3-Chloro-6-(1H-pyrazol-4-yl)-8-trifluoromethyl-imidazo[1,2-a]pyridine-2-carboxylic Acid(thiophen-2-ylmethyl)-amide]
inhibition at 10 µM: 93.9%

O=C(NCc1cccs1)c1nc2c(C(F)(F)F)cc(-c3ccc[nH]3)cn2c1Cl [Compound 293, 3-Chloro-6-(1H-pyrrol-2-yl)-8-trifluoromethyl-imidazo[1,2-a]pyridine-2-carboxylic Acid(thiophen-2-ylmethyl)-amide]
inhibition at 10 µM: 87.2%

O=C(NCc1cccs1)c1nc2c(C(F)(F)F)cc(C#Cc3ccccc3)cn2c1Cl [Compound 294, 3-Chloro-6-phenylethynyl-8-trifluoromethyl-imidazo[1,2-a]pyridine-2-carboxylic Acid(thiophen-2-ylmethyl)-amide]
inhibition at 10 µM: 41.5%

C#Cc1cc(C(F)(F)F)c2nc(C(=O)NCc3cccs3)c(Cl)n2c1 [Compound 297, 3-Chloro-6-ethynyl-8-trifluoromethyl-imidazo[1,2-a]pyridine-2-carboxylic Acid (thiophen-2-ylmethyl)-amide]
inhibition at 10 µM: 29.3%

O=C(NCc1cccs1)c1nc2c(C(F)(F)F)cc(-c3cccc(F)c3)cn2c1I [Compound 299, 6-(3-Fluoro-phenyl)-3-iodo-8-trifluoromethyl-imidazo[1,2-a]pyridine-2-carboxylic Acid(thiophen-2-ylmethyl)-amide]
inhibition at 10 µM: 97.6%

C/C=C\c1c(C(=O)NCc2cccs2)nc2c(C(F)(F)F)cc(-c3cccc(F)c3)cn12 [Compound 300, 6-(3-Fluoro-phenyl)-3-propenyl-8-trifluoromethyl-imidazo[1,2-a]pyridine-2-carboxylic Acid(thiophen-2-ylmethyl)-amide]
inhibition at 10 µM: 76.9%

O=C(NCc1cccs1)c1nc2c(C(F)(F)F)cc(-c3cccc(F)c3)cn2c1-c1cn[nH]c1 [Compound 301, 6-(3-Fluoro-phenyl)-3-(1H-pyrazol-4-yl)-8-trifluoromethyl-imidazo[1,2-a]pyridine-2-carboxylic Acid (thiophen-2-ylmethyl)-amide]
inhibition at 10 µM: 79.9%

C=C(C)c1c(C(=O)NCc2cccs2)nc2c(C(F)(F)F)cc(-c3cccc(F)c3)cn12 [Compound 302, 6-(3-Fluoro-phenyl)-3-isopropenyl-8-trifluoromethyl-imidazo[1,2-a]pyridine-2-carboxylic Acid (thiophen-2-ylmethyl)-amide]
inhibition at 10 µM: 69.5%

O=C(NCc1cccs1)c1nc2c(C(F)(F)F)cc(-c3cccc(F)c3)cn2c1C1=CCCCC1 [Compound 303, 3-Cyclohex-1-enyl-6-(3-fluoro-phenyl)-8-trifluoromethyl-imidazo[1,2-a]pyridine-2-carboxylic Acid (thiophen-2-ylmethyl)-amide]
inhibition at 10 µM: 39.7%

O=C(NCc1cccs1)c1nc2c(C(F)(F)F)cc(-c3cccc(F)c3)cn2c1C#Cc1cccnc1 [Compound 305, 6-(3-Fluoro-phenyl)-3-pyridin-3-ylethynyl-8-trifluoromethyl-imidazo[1,2-a]pyridine-2-carboxylic Acid (thiophen-2-ylmethyl)-amide]
inhibition at 10 µM: 59.5%

O=C(NCc1cccs1)c1nc2c(C(F)(F)F)cc(-c3cccc(F)c3)cn2c1C#CCCO [Compound 306, 6-(3-Fluoro-phenyl)-3-(4-hydroxy-but-1-ynyl)-8-trifluoromethyl-imidazo[1,2-a]pyridine-2-carboxylic Acid (thiophen-2-ylmethyl)-amide]
inhibition at 10 µM: 62.5%

CC(C)(C)C#Cc1c(C(=O)NCc2cccs2)nc2c(C(F)(F)F)cc(-c3cccc(F)c3)cn12 [Compound 307, 3-(3,3-Dimethyl-but-1-ynyl)-6-(3-fluoro-phenyl)-8-trifluoromethyl-imidazo[1,2-a]pyridine-2-carboxylic Acid (thiophen-2-ylmethyl)-amide]
inhibition at 10 µM: 33.5%

O=C(NCc1cccs1)c1nc2c(C(F)(F)F)cc(-c3cn[nH]n3)cn2c1Cl [Compound 308, 3-Chloro-6-(2H-[1,2,3]triazol-4-yl)-8-trifluoromethyl-imidazo[1,2-a]pyridine-2-carboxylic Acid (thiophen-2-ylmethyl)-amide]
inhibition at 10 µM: 88.2%

N#Cc1cc(C(F)(F)F)c2nc(C(=O)NCc3cccs3)c(Cl)n2c1 [Compound 309, 3-Chloro-6-cyano-8-trifluoromethyl-imidazo[1,2-a]pyridine-2-carboxylic Acid (thiophen-2-ylmethyl)-amide]
inhibition at 10 µM: 1.8%

O=C(NCc1cccs1)c1nc2c(C(F)(F)F)cc(-c3ncon3)cn2c1Cl [Compound 311, 3-Chloro-6-[1,2,4]oxadiazol-3-yl-8-trifluoromethyl-imidazo[1,2-a]pyridine-2-carboxylic Acid (thiophen-2-ylmethyl)-amide]
inhibition at 10 µM: 83.2%

COC(=O)c1cc(C(F)(F)F)c2nc(C(=O)NCc3cccs3)c(Cl)n2c1 [Compound 312, 3-Chloro-2-[(thiophen-2-ylmethyl)-carbamoyl]-8-trifluoromethyl-imidazo[1,2-a]pyridine-6-carboxylic Acid Methyl Ester]
inhibition at 10 µM: 76.2%

O=C(NCc1cccs1)c1cn2cc(-c3cccc(F)c3)cc(C(F)(F)F)c2n1 [Compound 314, 6-(3-Fluoro-phenyl)-8-trifluoromethyl-imidazo[1,2-a]pyridine-2-carboxylic Acid (thiophen-2-ylmethyl)-amide]
inhibition at 10 µM: 49.6%

O=C(c1nc2c(C(F)(F)F)cc(-c3ccco3)cn2c1Cl)N1CCC(c2ccc(F)cc2)C1 (centres unmarked) [Compound 316, (3-Chloro-6-furan-2-yl-8-trifluoromethyl-imidazo[1,2-a]pyridin-2-yl)-[3-(4-fluoro-phenyl)-pyrrolidin-1-yl]-methanone]
inhibition at 10 µM: 89.2%

O=C(c1nc2c(C(F)(F)F)cc(-c3ccco3)cn2c1Cl)N1CCC(O)(c2ccccc2)C1 (centres unmarked) [Compound 317, (3-Chloro-6-furan-2-yl-8-trifluoromethyl-imidazo[1,2-a]pyridin-2-yl)-(3-hydroxy-3-phenyl-pyrrolidin-1-yl)-methanone]
inhibition at 10 µM: 94.6%

CN1CCN(C(=O)c2nc3c(C(F)(F)F)cc(-c4ccco4)cn3c2Cl)CC1c1ccccc1 (centres unmarked) [Compound 318, (3-Chloro-6-furan-2-yl-8-trifluoromethyl-imidazo[1,2-a]pyridin-2-yl)-(4-methyl-3-phenyl-piperazin-1-yl)-methanone]
inhibition at 10 µM: 62.4%

CN(C)CCN(Cc1cccs1)C(=O)c1nc2c(C(F)(F)F)cc(-c3ccco3)cn2c1Cl [Compound 319, 3-Chloro-6-furan-2-yl-8-trifluoromethyl-imidazo[1,2-a]pyridine-2-carboxylic Acid (2-dimethylamino-ethyl)-thiophen-2-ylmethyl-amide]
inhibition at 10 µM: 58.8%

CN1CCN(C(=O)c2nc3c(C(F)(F)F)cc(-c4ccco4)cn3c2Cl)C(c2ccccc2)C1 (centres unmarked) [Compound 320, (3-Chloro-6-furan-2-yl-8-trifluoromethyl-imidazo[1,2-a]pyridin-2-yl)-(4-methyl-2-phenyl-piperazin-1-yl)-methanone]
inhibition at 10 µM: 0.6%

O=C(NCCc1ccccc1)c1nc2c(C(F)(F)F)cc(-c3ccco3)cn2c1Cl [Compound 321, 3-Chloro-6-furan-2-yl-8-trifluoromethyl-imidazo[1,2-a]pyridine-2-carboxylic Acid phenethyl-amide]
inhibition at 10 µM: 78.2%

O=C(c1nc2c(C(F)(F)F)cc(-c3ccco3)cn2c1Cl)N1CCCC1c1ccccc1 (centres unmarked) [Compound 322, (3-Chloro-6-furan-2-yl-8-trifluoromethyl-imidazo[1,2-a]pyridin-2-yl)-(2-phenyl-pyrrolidin-1-yl)-methanone]
inhibition at 10 µM: 78.7%

O=C(c1nc2c(C(F)(F)F)cc(-c3ccco3)cn2c1Cl)N1CCN(c2ccccc2)CC1 [Compound 323, (3-Chloro-6-furan-2-yl-8-trifluoromethyl-imidazo[1,2-a]pyridin-2-yl)-(4-phenyl-piperazin-1-yl)-methanone]
inhibition at 10 µM: 54.6%

O=C(c1nc2c(C(F)(F)F)cc(-c3ccco3)cn2c1Cl)N1CCN(Cc2ccccc2)CC1 [Compound 324, (4-Benzyl-piperazin-1-yl)-(3-chloro-6-furan-2-yl-8-trifluoromethyl-imidazo[1,2-a]pyridin-2-yl)-methanone]
inhibition at 10 µM: 34.6%

O=C(c1nc2c(C(F)(F)F)cc(-c3ccco3)cn2c1Cl)N1CCC(Cc2ccccc2)C1 (centres unmarked) [Compound 326, (3-Benzyl-pyrrolidin-1-yl)-(3-chloro-6-furan-2-yl-8-trifluoromethyl-imidazo[1,2-a]pyridin-2-yl)-methanone]
inhibition at 10 µM: 66.7%

Cn1cncc1CNC(=O)c1nc2c(C(F)(F)F)cc(-c3ccco3)cn2c1Cl [Compound 327, 3-Chloro-6-furan-2-yl-8-trifluoromethyl-imidazo[1,2-a]pyridine-2-carboxylic Acid (3-methyl-3H-imidazol-4-ylmethyl)-amide]
inhibition at 10 µM: 95.4%

O=C(c1nc2c(C(F)(F)F)cc(-c3ccco3)cn2c1Cl)N1CC(Cc2ccccc2)C1 [Compound 328, (3-Benzyl-azetidin-1-yl)-(3-chloro-6-furan-2-yl-8-trifluoromethyl-imidazo[1,2-a]pyridin-2-yl)-methanone]
inhibition at 10 µM: 72.5%

O=C(c1nc2c(C(F)(F)F)cc(-c3ccco3)cn2c1Cl)N1CCCC1c1ccc(F)cc1 (centres unmarked) [Compound 329, (3-Chloro-6-furan-2-yl-8-trifluoromethyl-imidazo[1,2-a]pyridin-2-yl)-[2-(4-fluoro-phenyl)-pyrrolidin-1-yl]-methanone]
inhibition at 10 µM: 97.6%
